Source: PubChem BioAssay AID330 (DTP/NCI, 2004)
“And” between values parts separate entries of the source, which are not always exact repeats. Equal values may be shown once. Toxic doses and inconclusive results are not listed.

Tested on: P388 leukemia ip, CD2F1 mice, survival T/C
Test: NCI In Vivo Anticancer Drug Screen. Data for tumor model P388 Leukemia (intraperitoneal) in CD2F1 (CDF1) mice
Conditions: endpoint: median survival time, higher = longer survival
In short: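 Mice carrying the transplanted tumor received test compound or vehicle. Survival was recorded in each group, and the value is the treated-group measurement divided by that of the vehicle-treated control group.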

[1] = dose: 100.0 mg/kg/injection, schedule: Q01DX001 (ip), vehicle: Klucel (hydroxypropylcellulose) (HPC)
[2] = dose: 60.0 mg/kg/injection, schedule: Q01DX005 (ip), vehicle: saline with Tween-80
[3] = dose: 120.0 mg/kg/injection, schedule: Q01DX005 (ip), vehicle: saline with Tween-80
[4] = dose: 12.5 mg/kg/injection, schedule: Q01DX009 (ip), vehicle: distilled water + Tween-80
[5] = dose: 25.0 mg/kg/injection, schedule: Q01DX009 (ip), vehicle: distilled water + Tween-80
[6] = dose: 50.0 mg/kg/injection, schedule: Q01DX009 (ip), vehicle: distilled water + Tween-80
[7] = dose: 100.0 mg/kg/injection, schedule: Q01DX009 (ip), vehicle: distilled water + Tween-80
[8] = dose: 200.0 mg/kg/injection, schedule: Q01DX009 (ip), vehicle: distilled water + Tween-80
[9] = dose: 50.0 mg/kg/injection, schedule: Q01DX005 (ip), vehicle: saline with Tween-80
[10] = dose: 100.0 mg/kg/injection, schedule: Q01DX005 (ip), vehicle: saline with Tween-80
[11] = dose: 200.0 mg/kg/injection, schedule: Q01DX005 (ip), vehicle: saline with Tween-80
[12] = dose: 3.13 mg/kg/injection, schedule: Q01DX009 (ip), vehicle: distilled water + Tween-80
[13] = dose: 6.25 mg/kg/injection, schedule: Q01DX009 (ip), vehicle: distilled water + Tween-80
[14] = dose: 50.0 mg/kg/injection, schedule: Q01DX005 (ip), vehicle: Klucel (hydroxypropylcellulose) (HPC)
[15] = dose: 12.5 mg/kg/injection, schedule: Q01DX009 (ip), vehicle: saline with Tween-80
[16] = dose: 25.0 mg/kg/injection, schedule: Q01DX009 (ip), vehicle: saline with Tween-80
[17] = dose: 50.0 mg/kg/injection, schedule: Q01DX009 (ip), vehicle: saline with Tween-80
[18] = dose: 100.0 mg/kg/injection, schedule: Q01DX009 (ip), vehicle: saline with Tween-80
[19] = dose: 200.0 mg/kg/injection, schedule: Q01DX009 (ip), vehicle: saline with Tween-80

In the case of `Nc1ccccc1/C=C/c1ccnc2ccccc12`, the T/C (dose: 12.5 mg/kg/injection, schedule: Q01DX001 (ip), vehicle: Klucel (hydroxypropylcellulose) (HPC)) is reported as 101 % of control and 96 % of control, the T/C (dose: 25.0 mg/kg/injection, schedule: Q01DX001 (ip), vehicle: Klucel (hydroxypropylcellulose) (HPC)) is reported as 100 % of control and 89 % of control and the T/C (dose: 50.0 mg/kg/injection, schedule: Q01DX001 (ip), vehicle: Klucel (hydroxypropylcellulose) (HPC)) is reported as 91 % of control and 97 % of control. The T/C [1] was 87 % of control and 94 % of control.

`O=c1[nH]c(=O)n(C2OC(CO)C(O)C2O)cc1CC(F)(F)C(F)(F)F` (stereo not given) was tested, and the T/C (dose: 50.0 mg/kg/injection, schedule: Q01DX001 (ip), vehicle: saline with Tween-80) was 107 % of control, the T/C (dose: 100.0 mg/kg/injection, schedule: Q01DX001 (ip), vehicle: saline with Tween-80) was 106 % of control and the T/C (dose: 200.0 mg/kg/injection, schedule: Q01DX001 (ip), vehicle: saline with Tween-80) was 100 % of control. For the same compound, the T/C (dose: 400.0 mg/kg/injection, schedule: Q01DX001 (ip), vehicle: saline with Tween-80) was 101 % of control.

With `CC(=O)c1c[nH]c(=O)c2cc3c(cc12)OCO3` the T/C [2] was 95 % of control and the T/C [3] was 91 % of control.

In the case of `CCOC(=O)/C(C#N)=C/Nc1cc(C(=O)OCC)cc2c(OC)c(OC)ccc12`, the T/C [4] is reported as 97 % of control, the T/C [5] is reported as 93 % of control and the T/C [6] is reported as 106 % of control. For the same compound, the T/C [7] was 106 % of control and the T/C [8] was 110 % of control.

`S=c1[nH]ccc2ccccc12` was tested, and the T/C (dose: 50.0 mg/kg/injection, schedule: Q01DX009 (ip), vehicle: Klucel (hydroxypropylcellulose) (HPC)) was 100 % of control, the T/C (dose: 100.0 mg/kg/injection, schedule: Q01DX009 (ip), vehicle: Klucel (hydroxypropylcellulose) (HPC)) was 101 % of control and the T/C (dose: 200.0 mg/kg/injection, schedule: Q01DX009 (ip), vehicle: Klucel (hydroxypropylcellulose) (HPC)) was 119 % of control. The T/C (dose: 400.0 mg/kg/injection, schedule: Q01DX009 (ip), vehicle: Klucel (hydroxypropylcellulose) (HPC)) was 105 % of control.

For `CCC1C(OC)=CC(CC)(CO)C=C1OC` (stereo not given), the T/C [9] was 95 % of control, the T/C [10] was 95 % of control and the T/C [11] was 100 % of control.

`CCOC(=O)CC1(O)C=C(C)C(=O)C(C)=C1` was tested, and the T/C [12] was 100 % of control, the T/C [13] was 109 % of control and the T/C [4] was 103 % of control. For the same compound, the T/C [5] was 98 % of control, the T/C [6] was 107 % of control and the T/C [7] was 99 % of control. For the same compound, the T/C [8] was 112 % of control and the T/C (dose: 400.0 mg/kg/injection, schedule: Q01DX009 (ip), vehicle: distilled water + Tween-80) was 108 % of control.

In the case of `COc1ccc2c(c1OC)[C@]13CCCC[C@@H]1[C@H](C2)N(C)CC3`, the T/C (dose: 12.5 mg/kg/injection, schedule: Q04DX003 (ip), vehicle: saline) is reported as 101 % of control, the T/C (dose: 25.0 mg/kg/injection, schedule: Q04DX003 (ip), vehicle: saline) is reported as 100 % of control and the T/C (dose: 50.0 mg/kg/injection, schedule: Q04DX003 (ip), vehicle: saline) is reported as 100 % of control.

`COc1ccc2nc(-n3[nH]c(C)c(-c4cc(C)[nH]n4)c3=O)cc(C)c2c1` was tested, and the T/C [9] was 91 % of control, the T/C [10] was 91 % of control and the T/C [11] was 90 % of control.

With `CC(=O)OC(C)C(C)N(C)C` (stereo not given) the T/C (dose: 100.0 mg/kg/injection, schedule: Q04DX003 (ip), vehicle: saline) was 94 % of control and the T/C (dose: 200.0 mg/kg/injection, schedule: Q04DX003 (ip), vehicle: saline) was 101 % of control.

With `O=C(Nc1ccc(C2=NCCN2)cc1)c1cc2cc(C3=NCCN3)ccc2o1` the T/C (dose: 12.5 mg/kg/injection, schedule: Q04DX003 (ip), vehicle: suspension in saline) was 100 % of control, the T/C (dose: 25.0 mg/kg/injection, schedule: Q04DX003 (ip), vehicle: suspension in saline) was 102 % of control and the T/C (dose: 50.0 mg/kg/injection, schedule: Q04DX003 (ip), vehicle: suspension in saline) was 100 % of control.

With `Clc1ccnc2ccc3ccccc3c12` the T/C (dose: 50.0 mg/kg/injection, schedule: Q01DX009 (ip), vehicle: saline) was 107 % of control, the T/C (dose: 100.0 mg/kg/injection, schedule: Q01DX009 (ip), vehicle: saline) was 100 % of control and 101 % of control and the T/C (dose: 200.0 mg/kg/injection, schedule: Q01DX009 (ip), vehicle: saline) was 100 % of control and 92 % of control.

`COc1ccc2c(c1)C(=O)C[C@@H]1[C@](C)(C#N)CCC[C@]21C` was tested, and the T/C [2] was 100 % of control, the T/C [3] was 94 % of control and the T/C (dose: 240.0 mg/kg/injection, schedule: Q01DX005 (ip), vehicle: saline with Tween-80) was 94 % of control.

`[CH3][Ga]([CH3])[n]1cccn1` was tested, and the T/C (dose: 3.12 mg/kg/injection, schedule: Q01DX005 (ip), vehicle: Klucel (hydroxypropylcellulose) (HPC)) was 100 % of control and the T/C (dose: 6.25 mg/kg/injection, schedule: Q01DX005 (ip), vehicle: Klucel (hydroxypropylcellulose) (HPC)) was 111 % of control.

For `COC(=O)c1nnn(Cc2ccccc2)c1Cl`, the T/C [14] was 98 % of control, the T/C (dose: 100.0 mg/kg/injection, schedule: Q01DX005 (ip), vehicle: Klucel (hydroxypropylcellulose) (HPC)) was 103 % of control and 104 % of control and the T/C (dose: 200.0 mg/kg/injection, schedule: Q01DX005 (ip), vehicle: Klucel (hydroxypropylcellulose) (HPC)) was 102 % of control and 105 % of control.

For `[Br][Pb]([Br])([c]1ccccc1)[c]1ccccc1`, the T/C [15] was 104 % of control and 112 % of control, the T/C [16] was 113 % of control (2×) and 114 % of control and the T/C [17] was 107 % of control and 121 % of control. For the same compound, the T/C [18] was 98 % of control.

`CNc1nc(-c2ccc(OC)cc2)c(-c2ccc(OC)cc2)[nH]1` was tested, and the T/C (dose: 25.0 mg/kg/injection, schedule: Q04DX002 (ip), vehicle: saline with Tween-80) was 108 % of control and 111 % of control, the T/C (dose: 50.0 mg/kg/injection, schedule: Q04DX002 (ip), vehicle: saline with Tween-80) was 107 % of control and the T/C (dose: 100.0 mg/kg/injection, schedule: Q04DX002 (ip), vehicle: saline with Tween-80) was 99 % of control.

In the case of `CC(C)NC(=O)OCc1c(COC(=O)NC(C)C)c(-c2ccc(F)cc2F)n2c1CCC2`, the T/C [12] is reported as 168 % of control, the T/C [13] is reported as 158 % of control and 162 % of control and the T/C [4] is reported as 174 % of control and 180 % of control. For the same compound, the T/C [5] was 99 % of control.

`CC(C)(C)c1ccc(OP(=S)(N/N=C/c2ccccc2O)Oc2ccc(C(C)(C)C)cc2)cc1` was tested, and the T/C [15] was 94 % of control, the T/C [16] was 88 % of control and the T/C [17] was 93 % of control and 95 % of control. For the same compound, the T/C [18] was 95 % of control and the T/C [19] was 95 % of control.

`C[CH2][Ge]([CH2]C)[O]C(=O)C(=O)[O][Ge]([CH2]C)[CH2]C` was tested, and the T/C (dose: 12.5 mg/kg/injection, schedule: Q01DX005 (ip), vehicle: Klucel (hydroxypropylcellulose) (HPC)) was 100 % of control, the T/C (dose: 25.0 mg/kg/injection, schedule: Q01DX005 (ip), vehicle: Klucel (hydroxypropylcellulose) (HPC)) was 103 % of control and the T/C [14] was 118 % of control.

`O=C(Nc1ccccc1Cl)Oc1ccc(-c2ccccc2)cc1Br` was tested, and the T/C [16] was 111 % of control, the T/C [17] was 121 % of control and the T/C [19] was 104 % of control and 95 % of control.

For `CC1CCC(c2ccccc2)(c2ccccc2)C1=O` (stereo not given), the T/C [1] was 96 % of control, the T/C (dose: 200.0 mg/kg/injection, schedule: Q01DX001 (ip), vehicle: Klucel (hydroxypropylcellulose) (HPC)) was 100 % of control and the T/C (dose: 400.0 mg/kg/injection, schedule: Q01DX001 (ip), vehicle: Klucel (hydroxypropylcellulose) (HPC)) was 96 % of control.

`COc1cc2c(c3oc4c(O)cccc4c(=O)c13)CC(C(C)(O)CO)O2` (stereo not given) was tested, and the T/C (dose: 3.5 mg/kg/injection, schedule: Q01DX005 (ip), vehicle: Klucel (hydroxypropylcellulose) (HPC)) was 105 % of control, the T/C (dose: 7.0 mg/kg/injection, schedule: Q01DX005 (ip), vehicle: Klucel (hydroxypropylcellulose) (HPC)) was 96 % of control and the T/C (dose: 14.0 mg/kg/injection, schedule: Q01DX005 (ip), vehicle: Klucel (hydroxypropylcellulose) (HPC)) was 96 % of control. The T/C (dose: 28.0 mg/kg/injection, schedule: Q01DX005 (ip), vehicle: Klucel (hydroxypropylcellulose) (HPC)) was 92 % of control.

For `CC1(C)OC(CC(=O)O)C23COC(C(=O)C4(C)C2CCC2(C)C(C5CCOC5)OC(=O)C5OC524)C13` (stereo not given), the T/C (dose: 0.5 mg/kg/injection, schedule: Q01DX009 (ip), vehicle: saline + alcohol) was 103 % of control, the T/C (dose: 1.0 mg/kg/injection, schedule: Q01DX009 (ip), vehicle: saline + alcohol) was 101 % of control and the T/C (dose: 2.0 mg/kg/injection, schedule: Q01DX009 (ip), vehicle: saline + alcohol) was 100 % of control. The T/C (dose: 4.0 mg/kg/injection, schedule: Q01DX009 (ip), vehicle: saline + alcohol) was 103 % of control.
